Data published in patent publication US20240325548A1, “DYNAMIC BIOACTIVE SCAFFOLDS AND THERAPEUTIC USES THEREOF AFTER CNS INJURY” (Northwestern University, priority 2021, published 2024).

How the values were obtained:
[1] = T2-NMR spin-spin relaxation rate of PA assemblies; format: physicochemical; conditions: T2 relaxation of K residue of IKVAV PAs, no Ca2+
Description: NMR spectra were acquired at 600 MHz on a Tecmag NMR spectrometer using a Doty diffusion probe with a sweep width of 6 kHz and 16k data points or at 600 MHz on a Brucker Neo system with QCI-F cryoprobe.
NMR spectra for IKVAV PAs were recorded at 25° C. using TFA-d, H2O/D2O in 9/1 ratio (D2O contains 0.05 wt. % 3-(trimethylsilyl) propionic-2,2,3,3-d4 acid, sodium salt) as solvents. Chemical shifts are reported in part per million (ppm). Structural assignment was performed using ^1H,^1H-gCOSY, ^1H,^13C-gHSCQAD, TOCSY and NOESY. Multiplicities are quoted as singlet (s), doublet (d), multiplets (m), doublet of doublets (dd), doublet of doublet of doublets (ddd), triplet (t), quartet (q). The […] and typical spectra required 32 scans. Additional scans (512) were required for accurate estimation of the aromatic signal intensity since the epitope containing aromatic protons was present at only 10 mol %.
The spin-spin relaxation rates were measured using the Carr-Purcell-Gill-Meiboom pulse sequence with a delay time of 0.2 ms in a variable loop. The peak intensity data was fit to and exponential in the form:
where τ is the length of the delay time, R2 is the spin-spin relaxation rate and b are the baseline.

hNPCs [2] = experiment: Neuronal differentiation of hNPCs treated with IKVAV PAs (TUJ-1+ cells); format: cell-based, human
Text: (§1) Neural progenitor cells (NPCs) were differentiated from human embryonic stem cells HUES 64 (Harvard University) (see FIG. 2C). In short, 70% confluent stem cell cultures grown in Matrigel (Thermo Fisher) coated plates with mTESR medium (STEMCELL Technologies), were switched to N2B27 medium (50% DMEM: F12, 50% Neurobasal, supplemented with NEAA, Glutamax, N2 and B27; Gibco) containing dual SMAD inhibitors (SB431542, DNSK International and LDN-193189, Tocris) for 12 days to induce the generation of neural progenitors. Neuralization was enhanced by supplementing medium with laminin from day 5 to 12. Next, neural rosettes were dissociated with neural rosette selection reagent (STEMCELL Technologies) to obtain NPCs, which are expanded in N2B27 (Gibco) medium supplemented with bFGF (Millipore). For experimentation in the different PA platforms, NPCs were dissociated with Accutase (Innovative Cell technology), and cultured in the distinct platforms with DMEM: F12+N2+B27 medium with hyclone penicillin-streptomycin (GE Healthcare) and ascorbic acid (0.2 μg/mL; Sigma-Aldrich).
(§2) For IKVAV PA treatments, hNPCs were cultured on ornithine coatings (German Glass, Chemglass Life Science) in 6 well and 24 well plates at a density of 500,000 cells/well and 80,000 cells/well respectively. hNPCs were treated with […] of IKVAV PAs ([PA]=6 mM, [KCl]=3 mM, [NaCl]=150 mM) or recombinant laminin protein (10 mg/mL) in solution. IKVAV PA2 and IKVAV PA5 were also mixed with 5 mM CaCl2) at a ratio PA:CaCl2) 6:1 to treat hNPCs. For 2D experiments, hNPCs were cultured on the different IKVAV PAs or laminin coatings in 6 well and 24 well plates at densities mentioned above. For co-assembled experiments, hNPCs were cultured on the different co-assembled PA coatings in 6 well and 24 well plates at a density of 400,000 cells/well and 50,000 cells/well respectively.
(§3) hNPCs were fed 4 times a week with DMEM: F12+N2^+B27 medium with hyclone penicillin-streptomycin and ascorbic acid. After 24 h, 72 h 1- or 2-weeks in vitro, cell lysates were harvested or fixed for WB or ICC, respectively. Three replicates per condition and at least three independent experiments were carried out for all conditions investigated.
(§4) For immunofluorescence, fixed primary cultures or free-floating tissue sections (40 m Thick) were incubated in blocking buffer containing 0.02% Triton-X (Sigma-Aldrich), 1% NHS (Gibco) and PBS 1× (Gibco). Samples were incubated with primary antibodies over night at 4° C. Alexa-488, Alexa-555 and/or Alexa-647 (1:500, Thermofisher) were used as secondary antibodies. DAPI (1:500, Thermofisher) was used to stain nuclei. Finally, the samples were mounted on coverslips with Immu-Mount (Fisher Scientific) solution for imaging.
For in vitro cell quantification, image files were imported into NIH Image J (1.51) software and the “analyze particles” and “cell counter” functions were used to measure the total number of cells in a determined area. Serial tissue sections were stained with NeuN and ChAT using free-floating immunostaining were quantified using Nikon Elements software. The rostral and caudal borders of the lesions were chosen as the first cross-sections that had NeuN staining in all four gray matter horns. 8 sections within the lesion were chosen per animal and expressed as number of neurons per section. Automated multichannel image acquisition, image stitching, and z-stack reconstruction ([…]) were carried out on a Nikon GasP R1 confocal microscope to image the entire selected cross-section for NeuN and Chat markers for all conditions.

β1-INTEGRIN (ITGB1) = target: T1, β1-INTEGRIN (ITGB1) (Homo sapiens, UniProt P05556); experiment: ITGB1 activation and intracellular signaling in hNPCs treated with IKVAV PAs (confocal microscopy, WB); format: cell-based
T1 construct: endogenous in cells; host or cells: hNPCs differentiated from human embryonic stem cells HUES 64
T1 sequence (P05556 21-798): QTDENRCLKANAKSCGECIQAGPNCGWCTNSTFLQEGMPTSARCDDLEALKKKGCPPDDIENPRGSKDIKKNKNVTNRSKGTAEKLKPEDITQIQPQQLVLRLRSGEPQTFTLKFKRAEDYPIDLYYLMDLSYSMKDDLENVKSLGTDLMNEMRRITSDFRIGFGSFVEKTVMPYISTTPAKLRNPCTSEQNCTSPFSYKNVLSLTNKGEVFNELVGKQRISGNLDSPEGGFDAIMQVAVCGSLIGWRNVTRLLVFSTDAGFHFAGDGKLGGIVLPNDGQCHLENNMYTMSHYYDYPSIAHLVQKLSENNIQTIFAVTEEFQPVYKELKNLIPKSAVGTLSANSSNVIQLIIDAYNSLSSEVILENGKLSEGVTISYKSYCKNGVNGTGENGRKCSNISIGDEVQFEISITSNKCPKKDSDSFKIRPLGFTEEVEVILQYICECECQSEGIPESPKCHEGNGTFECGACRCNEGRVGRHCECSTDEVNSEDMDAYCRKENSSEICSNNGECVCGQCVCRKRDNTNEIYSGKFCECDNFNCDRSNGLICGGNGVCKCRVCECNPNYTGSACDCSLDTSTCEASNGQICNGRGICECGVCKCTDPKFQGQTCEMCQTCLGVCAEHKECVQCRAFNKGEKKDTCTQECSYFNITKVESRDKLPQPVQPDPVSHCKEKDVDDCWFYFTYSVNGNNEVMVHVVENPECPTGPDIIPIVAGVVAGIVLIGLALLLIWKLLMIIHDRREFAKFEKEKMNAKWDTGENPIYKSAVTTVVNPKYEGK
Text: as §1, §2, §3, §4
RIPA buffer (Thermofisher) with a cocktail of Halt Protease and Phosphatase Inhibitors (Thermofisher) was used to extract protein from in vitro and in vivo samples. For in vivo studies, spinal cord tissue was then sonicated using a horn sonicator (Branson) to break up the tissue. A Pierce™ BCA Protein Assay Kit (Thermofisher) was used to determine protein content for all samples used. Protein extracts obtained from cell cultures or tissue were separated using an SDS-polyacrylamide gel and electro-transferred to a nitrocellulose membrane (Bio-Rad). Membranes were blocked for 30 minutes to 1 hour using a 5% milk solution (Bio-Rad) and incubated over night with primary antibodies. Corresponding secondary HRP-conjugated antibodies (1:1000, ThermoFisher) were used for 1 h at room temperature. Radiance Bioluminescent ECL substrate (Azure Biosystems) was used to detect protein signal. The membranes were imaged using the Azure Biosystems imager and densitometry analysis were performed using ImageJ software.

[3] = test system: murine model of severe spinal cord injury (SCI); experiment: Glial scar, GAP-43, MBP, laminin and fibronectin in the SCI lesion (immunofluorescence, WB); conditions: mouse, in vivo
Description: All experiments were conducted at the Simpson Querrey Institute at Northwestern University. 182 CD1 mice (Charles River) were subjects of this study (N=38 Sham, N=38 IKVAV PA2 alone, N=38 IKVAV PA2+FGF2 PA1, N=38 IKVAV PA2+FGF2 PA2, N=12 IKVAV PA1, N=12 Backbone PA, N=6 IKVAV PA4). The age of animals used in the study was in the range of 10-16 weeks. 8 independent in vivo experiments were carried out (injury+PA injection) and each of the 8 experiments had animals of the exact same age which were injected with at least the 4 main treatment groups: Sham, IKVAV PA2 alone, IKVAV PA2+FGF2 PA1, and IKVAV PA2+FGF2 PA2. Animals were anesthetized using 2.5% isoflurane gas with oxygen. A laminectomy was performed to expose the spinal cord at the T10-T11 spinal level. A severe contusive injury was performed using the Infinite Horizon Spinal Cord Impactor system (IH-0400 Precision Systems and Instrumentation) with 85 kdyn of impact force and a dwell time of 60 s. […]
PAs (dissolved in sterile NaCl 0.9% solution at 1 wt %) were injected 24 h after SCI using a glass capillary micropipette (Sutter Instruments, Novato, CA) (outer diameter, 100 m) coated with Sigmacote (Sigma-Aldrich) to reduce surface tension as described elsewhere (19). […] The micropipette was lowered to a depth of 750 m measured from the dorsal surface of the cord, and 4-6 μL of the diluted amphiphile solution was injected at 1 L/min. […]

[4] = test system: murine model of severe spinal cord injury (SCI); experiment: Corticospinal tract (CST) axon regrowth after SCI (BDA tracing); format: in vivo, mouse; conditions: 12 weeks after injury, BDA-labeled axons
Description: All experiments were conducted at the Simpson Querrey Institute at Northwestern University. 182 CD1 mice (Charles River) were subjects of this study (N=38 Sham, N=38 IKVAV PA2 alone, N=38 IKVAV PA2+FGF2 PA1, N=38 IKVAV PA2+FGF2 PA2, N=12 IKVAV PA1, N=12 Backbone PA, N=6 IKVAV PA4). The age of animals used in the study was in the range of 10-16 weeks. 8 independent in vivo experiments were carried out (injury+PA injection) and each of the 8 experiments had animals of the exact same age which were injected with at least the 4 main treatment groups: Sham, IKVAV PA2 alone, IKVAV PA2+FGF2 PA1, and IKVAV PA2+FGF2 PA2. Animals were anesthetized using 2.5% isoflurane gas with oxygen. A laminectomy was performed to expose the spinal cord at the T10-T11 spinal level. A severe contusive injury was performed using the Infinite Horizon Spinal Cord Impactor system (IH-0400 Precision Systems and Instrumentation) with 85 kdyn of impact force and a dwell time of 60 s. After the lesion, the skin was sutured using 9 mm wound clips (BD Biosciences) and the animals were recovered on a heating pad to maintain body temperature. Bladders were manually expressed daily during the entire 12 weeks of the experiment.
PAs (dissolved in sterile NaCl 0.9% solution at 1 wt %) were injected 24 h after SCI using a glass capillary micropipette (Sutter Instruments, Novato, CA) (outer diameter, 100 m) coated with Sigmacote (Sigma-Aldrich) to reduce surface tension as described elsewhere (19). The capillaries were loaded onto a Hamilton syringe using a female Luer adaptor (World Precision Instruments) controlled by a Micro4 microsyringe pump controller (World Precision Instruments). Under isoflurane anesthesia, autoclips were removed and the injury site was exposed. At 24 h post injury, the laminectomy in the spinal column was still intact and the bruise created by the lesion was visible. A stereotaxic Kopf apparatus was used to position the micropipette just dorsal to the lesion. The micropipette was lowered to a depth of 750 m measured from the dorsal surface of the cord, and 4-6 μL of the diluted amphiphile solution was injected at 1 L/min. […]
Axons labeled using BDA (Thermofisher, N7167) or stained with 5HT (Abcam) were quantified using Imaris® software version 9.3 as previously described (21). Lines were drawn across longitudinal spinal cord sections from the proximal border (PB) to the distal border (DB) of the SCI lesion at consistent distances and the number of axons intercepting the lines drawn was counted by researchers that were blinded to the experimental conditions. Multiple sections through the middle of the cord, where BDA or 5HT staining was denser, were counted per mouse and expressed as total intercepts per location, per animal. […]

hNPCs [5] = experiment: hNPC attachment, proliferation and phenotype on co-assembled PA coatings (EdU, SOX-2, PAX6); format: cell-based, human
Text: as §1, §2, §3
For the hNPCs proliferation assay, 2 μM of the thymidine analog 5-ethynyl-2′-deoxyuridine (EdU, Thermo Fisher) was incorporated into the culture medium for 24 h. Cells were fixed at the indicated time points in 4% paraformaldehyde (PFA) for 15 min at RT. After fixation, samples were washed in PBS twice and then stained with Click-iT™ EdU Cell Proliferation Kit containing 11 mM CuSO4 (from 50 mM stock) and 1 μg/mL of Alexa Fluor-555 azide (from 0.5 mg/mL, Thermo Fisher) for 30 minutes at RT in the dark. The staining cocktail was then removed, and cells were washed with PBS. Then, hNPCs were counterstained with anti-rabbit SOX-2 antibody following the immunofluorescence protocol described below and 4′, 6-diamidino-2-phenylindole (DAPI, Thermo Fisher) at 5 μg/mL in PBS for 20 min at RT. The cells were then washed with PBS and mounted with Immu-Mount (Fisher Scientific) for imaging.
For immunofluorescence, fixed primary cultures or free-floating tissue sections (40 m Thick) were incubated in blocking buffer containing 0.02% Triton-X (Sigma-Aldrich), 1% NHS (Gibco) and PBS 1× (Gibco). Samples were incubated with primary antibodies over night at 4° C. Alexa-488, Alexa-555 and/or Alexa-647 (1:500, Thermofisher) were used as secondary antibodies. DAPI (1:500, Thermofisher) was used to stain nuclei. […]

Substance	R2 [1] [s⁻¹]	percentage of induction of TUJ-1+ neuronal cells (hNPCs [2]) [%]	in vitro bioactivity (summary) (β1-INTEGRIN (ITGB1))	glial scar (reactive astrocytes, GFAP) at the borders of the injury [3]	CST axon regrowth within the lesion [4]	percentage of proliferating EdU+ and SOX2+ cells (hNPCs [5])	percentage of neuronal progenitor cells PAX6+ (hNPCs [5]; one week later)
C16-A4E4GIKVAV [IKVAV PA8]	4.5 ± 0.2	7.5±0.5	low level of in vitro bioactivity	–	–	–	–
C16-AVA2E4GIKVAV [IKVAV PA7]	6.0 ± 0.03	7.4±0.6	low level of in vitro bioactivity	–	–	–	–
C16-AVG2E4GIKVAV [IKVAV PA3]	4.5 ± 0.7	7.5±0.6	low level of in vitro bioactivity	–	–	–	–
C16-V2A2E2 (VVAAEE) [Backbone PA]	–	–	–	dense population of reactive astrocytes expressing high levels of GFAP	hardly observed	–	–
C16-VA3E4GIKVAV [IKVAV PA6]	6.1 ± 0.8	7.9±1.3	low level of in vitro bioactivity	–	–	–	–
laminin	–	–	–	–	–	decreased significantly	increased percentage
